Reference: paper PMC2680961, “Homologous desensitization of signalling by the alpha (α) isoform of the human thromboxane A2 receptor: A specific role for nitric oxide signalling” (Biochimica et Biophysica Acta, 2007)
Changes are numbered by the printed parent chain. Values joined by “and” are separate entries in the source; they are usually repeats but may differ in a detail not shown here. Equal values may be shown once.

Legend:
TPα^WT = biological target: T1, TPα^WT (Homo sapiens, UniProt P21731); experiment: [3H]SQ29,548 radioligand binding, Scatchard analysis, HEK.TPα^WT
T1 construct: expressed in transfected cells
T1 sequence (P21731 whole entry): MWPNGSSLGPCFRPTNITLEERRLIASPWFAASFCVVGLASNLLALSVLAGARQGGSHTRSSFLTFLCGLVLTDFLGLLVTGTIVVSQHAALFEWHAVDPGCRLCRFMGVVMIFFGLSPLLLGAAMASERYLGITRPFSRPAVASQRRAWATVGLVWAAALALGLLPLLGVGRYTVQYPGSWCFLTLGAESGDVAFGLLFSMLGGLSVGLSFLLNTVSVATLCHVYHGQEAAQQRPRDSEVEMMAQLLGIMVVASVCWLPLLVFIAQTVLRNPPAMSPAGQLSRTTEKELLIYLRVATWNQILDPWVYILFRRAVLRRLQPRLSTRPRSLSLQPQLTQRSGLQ
Method: (§1) Cells were harvested by centrifugation at 500×g at 4 °C for 5 min and washed three times with ice-cold Ca^2+/Mg^2+-free phosphate-buffered saline (PBS). TP radioligand binding assays were carried out at 30 °C for 30 min in 100 μl reactions in the presence of 0–40 nM [^3H] […] Protein determinations were carried out using the Bradford assay.
(§2) Radioligand binding and Scatchard analysis data were analysed using GraphPad Prisim V4.0 programme (GraphPad Software Inc., San Diego CA, USA). Statistical analyses were carried out using the unpaired Student's t test using the Statworks Analysis Package. p-values ≤ 0.01 indicated statistically significant differences.

TPα^S329,331A = biological target: T2, TPα^S329,331A (Homo sapiens, UniProt P21731, S329A/S331A); experiment: [3H]SQ29,548 radioligand binding, Scatchard analysis, HEK.TPα^S329,331A
T2 construct: expressed in transfected cells
T2 sequence (P21731 1-343 S329A/S331A): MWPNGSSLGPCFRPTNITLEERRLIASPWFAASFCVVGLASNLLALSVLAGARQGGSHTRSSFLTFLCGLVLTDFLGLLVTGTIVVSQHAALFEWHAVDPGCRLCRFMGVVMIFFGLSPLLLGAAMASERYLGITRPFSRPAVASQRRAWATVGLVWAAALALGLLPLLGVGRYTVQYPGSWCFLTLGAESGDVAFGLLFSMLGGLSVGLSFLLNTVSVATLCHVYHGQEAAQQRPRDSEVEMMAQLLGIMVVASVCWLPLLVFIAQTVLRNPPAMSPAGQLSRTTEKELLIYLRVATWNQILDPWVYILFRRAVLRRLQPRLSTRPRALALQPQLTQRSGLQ
Method: as §1, §2

TPα^S340A = biological target: T3, TPα^S340A (Homo sapiens, UniProt P21731, S340A); experiment: [3H]SQ29,548 radioligand binding, Scatchard analysis, HEK.TPα^S340A
T3 construct: expressed in transfected cells
T3 sequence (P21731 1-343 S340A): T2 sequence (P21731 1-343 S329A/S331A) with A329S, A331S, S340A
Method: as §1, §2

TPα^T337,S340A = biological target: T4, TPα^T337,S340A (Homo sapiens, UniProt P21731, S340A/T337A); experiment: [3H]SQ29,548 radioligand binding, Scatchard analysis, HEK.TPα^T337,S340A
T4 construct: expressed in transfected cells
T4 sequence (P21731 1-343 T337A/S340A): T2 sequence (P21731 1-343 S329A/S331A) with A329S, A331S, T337A, S340A
Method: as §1, §2

TPα^S331,T337,S340A = biological target: T5, TPα^S331,T337,S340A (Homo sapiens, UniProt P21731, S331A/S340A/T337A); experiment: [3H]SQ29,548 radioligand binding, Scatchard analysis, HEK.TPα^S331,T337,S340A
T5 construct: expressed in transfected cells
T5 sequence (P21731 1-343 S331A/T337A/S340A): T2 sequence (P21731 1-343 S329A/S331A) with A329S, T337A, S340A
Method: as §1, §2

TPα = biological target: T6, TPα (Homo sapiens, UniProt P21731); experiment: Agonist-mediated TP phosphorylation in whole cells, HEK.TPα; assay type: cell-based; conditions: 1 μM U46619 10 min, [32P]orthophosphate labelling, PhosphorImage
T6 construct: expressed in transfected cells
T6 sequence (P21731 1-343): T2 sequence (P21731 1-343 S329A/S331A) with A329S, A331S
Method: Agonist-mediated TP phosphorylation in whole cells (1.8–2 × 10^6 cells/10 cm dish) was performed essentially as previously described. Briefly, cells were transiently co-transfected with pADVA (10 μg), pCMV:Gαq (25 μg) plus pcDNA:βArrestin2 (25 μg) approximately 48 h prior to labelling. Thereafter, cells were washed once in phosphate-free DMEM, 10% dialysed FBS and were metabolically labelled for 60 min in the same medium (2 ml/10 cm dish) containing 100 μCi/ml [^32P] orthophosphate (8000–9000 Ci/mmol) at 37 °C, 5% CO2. Where appropriate, the PKG kinase inhibitor KT 5823 (50 nM) or its vehicle was added during the labelling period. Thereafter, U46619 (1 μM) or an equivalent volume of vehicle (0.01% ethanol in HBS; 20 μl) were added and cells were incubated for 10 min at 37 °C, 5% CO2. Reactions were terminated by transferring the dishes to ice and aspirating the labelled medium and HA-epitope tagged TP receptors were processed and immunoprecipitated using the anti-HA 101R antibody as previously described. Electroblots were then exposed to Xomat XAR (Kodak) film to detect ^32P-labelled proteins. Thereafter, blots were subject to phosphorimage analysis, and the intensities of agonist-induced phosphorylation were expressed in arbitrary units relative to basal (vehicle-stimulated) levels. In parallel experiments, cells were incubated under identical conditions in the absence of [^32P] orthophosphate; HA-tagged TP receptors were immunoprecipitated from the same cell lines using the anti-HA 101R antibody and immunoblots were screened using the anti-HA 3F10 horseradish peroxidase-conjugated antibody.

Row | Bmax (pmol/mg protein ± S.E.M.) (TPα^WT) [pmol/mg protein] | Bmax (pmol/mg protein ± S.E.M.) (TPα^S329,331A) [pmol/mg protein] | Bmax (pmol/mg protein ± S.E.M.) (TPα^S340A) [pmol/mg protein] | Bmax (pmol/mg protein ± S.E.M.) (TPα^T337,S340A) [pmol/mg protein] | Bmax (pmol/mg protein ± S.E.M.) (TPα^S331,T337,S340A) [pmol/mg protein] | U46619-mediated TPα phosphorylation relative to basal (vehicle) (TPα) | Structure (SMILES)
1 | 4.52 ± 0.05 | 2.9 ± 0.19 | 5.3 ± 0.04 | 4.9 ± 0.04 | 4.01 ± 0.05 |  | O=C(O)CCC/C=C\C[C@@H]1[C@H](CNNC(=O)Nc2ccccc2)[C@H]2CC[C@@H]1O2 [SQ29,548]
2 |  |  |  |  |  | 5–7 fold and 5 fold | CCCCC[C@H](O)/C=C/[C@@H]1[C@@H](C/C=C\CCCC(=O)O)[C@H]2CO[C@@H]1C2 [U46619]
